# Measurements as given in ChEMBL document CHEMBL1201862, “PubChem BioAssay data set” (2004).
#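 Five concentrations, 48 hours, 96-well plates. GI50 is the concentration that inhibits growth by half.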 Activity calls are given as the source filed them. Rule as the data show it: active = GI50 up to about 1.1 µM and inactive = higher.
# How the values were obtained:
# Assay in all cases: NCI-60 cell line screen, 48 h
# CCRF-CEM = tested on: CCRF-CEM
# NCI/ADR-RES = tested on: NCI/ADR-RES
# A549 = tested on: A549
# T47D = tested on: T47D
# LOX IMVI = tested on: LOX IMVI
# MDA-N = tested on: MDA-N
# MOLT-4 = tested on: MOLT-4
# MDA-MB-231 = tested on: MDA-MB-231
# UACC-257 = tested on: UACC-257
# SN12C = tested on: SN12C
# SNB-75 = tested on: SNB-75
# SNB-19 = tested on: SNB-19
# HCT-116 = tested on: HCT-116
# U-251 = tested on: U-251
# HT-29 = tested on: HT-29
# RPMI-8226 = tested on: RPMI-8226
# UO-31 = tested on: UO-31
# OVCAR-8 = tested on: OVCAR-8
# BT-549 = tested on: BT-549
SMILES,GI50 (CCRF-CEM),GI50 (NCI/ADR-RES),GI50 (A549),GI50 (T47D),GI50 (LOX IMVI),GI50 (MDA-N),GI50 (MOLT-4),GI50 (MDA-MB-231),GI50 (UACC-257),GI50 (SN12C),GI50 (SNB-75),GI50 (SNB-19),GI50 (HCT-116),GI50 (U-251),GI50 (HT-29),GI50 (RPMI-8226),GI50 (UO-31),GI50 (OVCAR-8),GI50 (BT-549)
Clc1ncc(C(Cl)(Cl)Cl)nc1-c1ccccc1,14.6 µM (inactive),4.07 µM (inactive),6.46 µM (inactive),1.96 µM (inactive),4.13 µM (inactive),1.87 µM (inactive),4.75 µM (inactive),1.97 µM (inactive),2.14 µM (inactive),2.86 µM (inactive),2.56 µM (inactive),1.69 µM (inactive),1.87 µM (inactive),1.84 µM (inactive),1.82 µM (inactive),0.598 µM (active),1.84 µM (inactive),2.57 µM (inactive),1.65 µM (inactive)
Cc1ccc(N2C(=O)CC(=O)N(NC(=O)C(C)Oc3ccccc3C)C2=S)cc1 (stereo not drawn),1.6 µM (inactive),> 100 µM (inactive),> 100 µM (inactive),> 100 µM (inactive),70.6 µM (inactive),94.8 µM (inactive),48 µM (inactive),> 100 µM (inactive),> 100 µM (inactive),> 100 µM (inactive),> 100 µM (inactive),> 100 µM (inactive),> 100 µM (inactive),> 100 µM (inactive),> 100 µM (inactive),> 100 µM (inactive),> 100 µM (inactive),> 100 µM (inactive),> 100 µM (inactive)
C(=C/c1nnnn1-c1ccccc1)/Nc1ccccc1,25.5 µM (inactive),24.6 µM (inactive),52.4 µM (inactive),29.6 µM (inactive),28.1 µM (inactive),22 µM (inactive),21.7 µM (inactive),39 µM (inactive),36.5 µM (inactive),30.8 µM (inactive),27.5 µM (inactive),26.7 µM (inactive),31.9 µM (inactive),27.9 µM (inactive),28.2 µM (inactive),31 µM (inactive),20.6 µM (inactive),29.5 µM (inactive),17.4 µM (inactive)
Cc1nnc2sc(N/N=C/c3ccccc3)nn12,> 100 µM (inactive),> 100 µM (inactive),> 100 µM (inactive),> 100 µM (inactive),> 100 µM (inactive),> 100 µM (inactive),> 100 µM (inactive),> 100 µM (inactive),> 100 µM (inactive),> 100 µM (inactive),> 100 µM (inactive),> 100 µM (inactive),> 100 µM (inactive),> 100 µM (inactive),> 100 µM (inactive),> 100 µM (inactive),> 100 µM (inactive),> 100 µM (inactive),> 100 µM (inactive)
CC(C)OC(=O)c1ccc(CCC2=CC(=O)C=CC2=O)cc1,0.697 µM (active),7.78 µM (inactive),25.4 µM (inactive),2.17 µM (inactive),4.1 µM (inactive),10.4 µM (inactive),2.1 µM (inactive),8.93 µM (inactive),12.1 µM (inactive),11.3 µM (inactive),22.5 µM (inactive),21.6 µM (inactive),11.8 µM (inactive),15.6 µM (inactive),18.1 µM (inactive),2.79 µM (inactive),4.5 µM (inactive),7.21 µM (inactive),5.25 µM (inactive)
N#CC1C(=O)Nc2sc(C(=O)c3ccc(Br)cc3)c(N)c2C12CCCCC2 (stereo not drawn),29 µM (inactive),24.9 µM (inactive),18.1 µM (inactive),12.3 µM (inactive),24.1 µM (inactive),17 µM (inactive),18.5 µM (inactive),23 µM (inactive),23.6 µM (inactive),27.9 µM (inactive),33.1 µM (inactive),37.9 µM (inactive),15.8 µM (inactive),25.1 µM (inactive),33.4 µM (inactive),19.9 µM (inactive),16.8 µM (inactive),39.8 µM (inactive),27.9 µM (inactive)
N#Cc1c(NC(=S)Nc2ccc(Cl)cc2)sc2c1CCN(N1CCc3c(sc(NC(=S)Nc4ccc(Cl)cc4)c3C#N)C1)C2,33 µM (inactive),76.6 µM (inactive),28.5 µM (inactive),21.6 µM (inactive),5.62 µM (inactive),28.7 µM (inactive),48.1 µM (inactive),12.7 µM (inactive),29.7 µM (inactive),39.3 µM (inactive),69 µM (inactive),64 µM (inactive),21.6 µM (inactive),29.2 µM (inactive),13.6 µM (inactive),> 100 µM (inactive),14.9 µM (inactive),29.3 µM (inactive),36.6 µM (inactive)
